We go through four compounds from BindingDB's records for doi:10.1021/jm050205o (Abbott Laboratories, 2005).

The experiment concerns the target T1, Glucocorticoid receptor (Homo sapiens, UniProt P04150).
T1 sequence (P04150 whole entry): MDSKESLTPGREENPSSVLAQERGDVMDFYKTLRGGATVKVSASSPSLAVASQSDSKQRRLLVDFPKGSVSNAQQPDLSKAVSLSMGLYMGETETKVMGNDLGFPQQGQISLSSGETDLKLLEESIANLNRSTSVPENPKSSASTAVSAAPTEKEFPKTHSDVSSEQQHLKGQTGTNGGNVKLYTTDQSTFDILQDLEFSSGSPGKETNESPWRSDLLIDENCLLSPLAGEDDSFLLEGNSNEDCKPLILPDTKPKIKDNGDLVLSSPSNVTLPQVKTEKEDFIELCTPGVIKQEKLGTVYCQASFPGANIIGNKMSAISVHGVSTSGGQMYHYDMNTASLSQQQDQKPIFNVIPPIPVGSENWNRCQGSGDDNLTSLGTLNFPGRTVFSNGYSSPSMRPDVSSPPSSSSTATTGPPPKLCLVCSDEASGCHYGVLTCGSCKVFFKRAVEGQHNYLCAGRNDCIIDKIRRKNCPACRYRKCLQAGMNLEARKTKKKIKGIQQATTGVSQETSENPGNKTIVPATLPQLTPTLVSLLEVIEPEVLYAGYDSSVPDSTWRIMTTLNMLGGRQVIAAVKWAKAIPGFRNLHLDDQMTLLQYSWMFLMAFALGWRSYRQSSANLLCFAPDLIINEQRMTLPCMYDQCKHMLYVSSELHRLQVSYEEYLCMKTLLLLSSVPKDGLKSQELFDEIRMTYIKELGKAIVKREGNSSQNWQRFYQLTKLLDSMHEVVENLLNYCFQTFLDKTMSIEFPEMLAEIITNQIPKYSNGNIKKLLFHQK
As to the kind of experiment: GR Binding Assay and GRAF Assay. Conditions: pH 8; 4 °C.
With `Cc1c(NS(C)(=O)=O)cccc1N(Cc1ccc(Oc2ccc(Br)c(OCC(=O)O)c2)cc1)Cc1ccc(F)cc1F` [2-{2-bromo-5-[4-({[(2,4-difluorophenyl)methyl](3-methanesulfonamido-2-methylphenyl)amino}methyl)phenoxy]phenoxy}acetic acid], the IC50 is 330 nM.
Then `Cc1c(NS(C)(=O)=O)cccc1N(Cc1ccc(Oc2ccc(Cl)c(OCC(=O)O)c2)cc1)Cc1ccc(F)cc1F` [2-{2-chloro-5-[4-({[(2,4-difluorophenyl)methyl](3-methanesulfonamido-2-methylphenyl)amino}methyl)phenoxy]phenoxy}acetic acid], with 500 nM.
Then `Cc1c(NS(C)(=O)=O)cccc1N(Cc1ccc(Oc2ccc(F)c(OCC(=O)O)c2)cc1)Cc1ccc(F)cc1F` [2-{5-[4-({[(2,4-difluorophenyl)methyl](3-methanesulfonamido-2-methylphenyl)amino}methyl)phenoxy]-2-fluorophenoxy}acetic acid], with 440 nM.
`CC#C[C@]1(O)CC[C@H]2[C@@H]3CCC4=CC(=O)CC[C@]4(Cc4ccc(C)cc4)C3=CC[C@@]21C` [(2R,10S,11S,14S,15S)-14-hydroxy-15-methyl-2-[(4-methylphenyl)methyl]-14-(prop-1-yn-1-yl)tetracyclo[8.7.0.0^{2,7}.0^{11,15}]heptadeca-1(17),6-dien-5-one] showed an IC50 of 43 nM.

The IC50 is the concentration needed to halve the response being measured. The low end stands for greater potency in that assay, the high end for weaker potency in that assay.
